According to publication PMC11403612, “Preparation and Preclinical Characterization of a Simple Ester for Dual Exogenous Supply of Lactate and Beta-hydroxybutyrate” (Journal of Agricultural and Food Chemistry, 2024):

Assay: In vitro stability in simulated intestinal fluid
Type: in vitro ADME
Conditions: simulated intestinal fluid (SIF) with pancreatin, intestinal enzymes (pancreatin), pH = 6.8
Procedure: The in vitro stability of LaKe was evaluated following incubation in simulated gastric fluid (SGF), simulated intestinal fluid (SIF), fresh and frozen plasma (rats and humans, respectively), and the presence of hepatocytes (rats and humans) and liver microsomes (rats and humans). At the chosen time points, the mixtures were analyzed by LC-MS/MS to quantify the remaining LaKe and all assays included at least one control compound with known pharmacokinetic properties. […]
centrifuged at 4000 rpm, 4℃ for 20 min. 60 μL of supernatant was mixed with 180 μL of purified water for subsequent LC/MS/MS analysis.
LC-MS/MS Condition: ACQUITY UPLC BEH C18 1.7um 2.1 * 50mm Column (Part No.186002350). Mobile phase: A: 0.1% Formic Acid in Water; B: 0.1% Formic Acid in ACN.
Stability of LaKe in simulated intestinal fluid (SIF)
Preparation of SIF-solution: 0.136 g KH2PO4 and 0.064 g pancreatin was dissolved H2O to a total volume of solution 20 mL. The pH of the test solution was adjusted to 6.80 ± 0.05.
Procedure: 2 μL of a 10mg/ml working solution of LaKe in DMSO was spiked into 96-deep-well plates corresponding to timepoints T0, T60, T120, T360 and T1440. Experiments were performed in duplicate. 198 μL of SIF solution was then transferred to the individual wells (except T0) to reach 0.1mg/ml as the final test concentration for each time point (60, 120, 360, 1440 minutes). […]

CC(O)CCOC(=O)C(C)O (stereo not shown) [LaKe, 3-hydroxybutyl 2-hydroxypropanoate]
half-life at 0.1 mg/ml: < 2 h
